Key:
Format in all cases: cell-based
[1] = molecular target: T1, human muscarinic M1 receptor (Homo sapiens, UniProt P11229); assay: Alphascreen Surefire phospho-ERK1/2 functional assay, M1; settings: for EC50: CHO cells stably expressing human M1, read-out: pEC50 M1 (converted); for Emax: CHO, read-out: % Emax cf. ACh, M1, CHO cells stably expressing human M1, relative to ACh; for % Emax cf. ACh, M1: CHO cells stably expressing human M1, relative to ACh
T1 sequence (P11229 1-460): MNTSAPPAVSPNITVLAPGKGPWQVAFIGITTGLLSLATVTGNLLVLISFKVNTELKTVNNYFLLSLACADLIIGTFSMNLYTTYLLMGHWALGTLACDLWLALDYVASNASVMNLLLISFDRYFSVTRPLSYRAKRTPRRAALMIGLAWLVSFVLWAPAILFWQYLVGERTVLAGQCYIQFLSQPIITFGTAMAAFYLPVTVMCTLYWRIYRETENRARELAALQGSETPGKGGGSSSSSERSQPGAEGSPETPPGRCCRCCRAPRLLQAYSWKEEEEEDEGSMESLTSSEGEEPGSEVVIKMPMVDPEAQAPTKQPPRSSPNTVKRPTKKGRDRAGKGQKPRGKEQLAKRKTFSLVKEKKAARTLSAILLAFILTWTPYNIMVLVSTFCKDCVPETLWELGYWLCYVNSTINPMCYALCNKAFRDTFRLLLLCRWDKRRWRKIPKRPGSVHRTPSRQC
Procedure: (§1) ERK1/2 phosphorylation is a downstream consequence of both Gq/11 and Gi/o protein coupled receptor activation, making it highly suitable for the assessment of M1, M3 (Gq/11 coupled) and M2, M4 receptors (Gi/o coupled), rather than using different assay formats for different receptor subtypes. CHO cells stably expressing the human muscarinic M1, M2, M3 or M4 receptor were plated (25K/well) onto 96-well tissue culture plates in MEM-alpha+10% dialysed FBS. Once adhered, cells were serum-starved overnight. Agonist stimulation was performed by the addition of 5 μL agonist to the cells for 5 min (37° C.). Media was removed and 50 μL of lysis buffer added. […] Plates were incubated for 2 h with gentle agitation in the dark and then read on a PHERAstar plate reader.
(§2) pEC50 and Emax figures were calculated from the resulting data for each receptor subtype.

[2] = molecular target: T2, human muscarinic M2 receptor (Homo sapiens, UniProt P08172); assay: Alphascreen Surefire phospho-ERK1/2 functional assay, M2; settings: for EC50: CHO cells stably expressing human M2, read-out: pEC50 M2 (converted); for Emax: CHO, read-out: % Emax cf. ACh, M2, CHO cells stably expressing human M2, relative to ACh; for % Emax cf. ACh, M2: CHO cells stably expressing human M2, relative to ACh
T2 sequence (P08172 1-466): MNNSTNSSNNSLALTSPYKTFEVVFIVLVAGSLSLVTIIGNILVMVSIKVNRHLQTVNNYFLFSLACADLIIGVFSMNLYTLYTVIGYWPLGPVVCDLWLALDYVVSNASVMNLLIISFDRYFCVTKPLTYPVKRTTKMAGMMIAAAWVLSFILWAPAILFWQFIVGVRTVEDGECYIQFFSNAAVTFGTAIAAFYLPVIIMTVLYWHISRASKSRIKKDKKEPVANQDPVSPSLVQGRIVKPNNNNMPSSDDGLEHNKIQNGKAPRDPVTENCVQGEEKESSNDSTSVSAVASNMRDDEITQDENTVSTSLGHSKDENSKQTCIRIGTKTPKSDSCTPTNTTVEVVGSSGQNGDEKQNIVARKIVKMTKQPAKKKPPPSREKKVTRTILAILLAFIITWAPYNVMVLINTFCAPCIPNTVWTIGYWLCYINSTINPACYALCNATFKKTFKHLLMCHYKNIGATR
Procedure: as §1, §2

[3] = molecular target: T3, human muscarinic M3 receptor (Homo sapiens, UniProt P20309); assay: Alphascreen Surefire phospho-ERK1/2 functional assay, M3; settings: for EC50: CHO cells stably expressing human M3, read-out: pEC50 M3 (converted); for Emax: CHO, read-out: % Emax cf. ACh, M3, CHO cells stably expressing human M3, relative to ACh; for % Emax cf. ACh, M3: CHO cells stably expressing human M3, relative to ACh
T3 construct: expressed in transfected cells
Procedure: as §1, §2

[4] = molecular target: T4, human muscarinic M4 receptor (Homo sapiens, UniProt P08173); assay: Alphascreen Surefire phospho-ERK1/2 functional assay, M4; settings: for EC50: CHO cells stably expressing human M4, read-out: pEC50 M4 (converted); for Emax: CHO, read-out: % Emax cf. ACh, M4, CHO cells stably expressing human M4, relative to ACh; for % Emax cf. ACh, M4: CHO cells stably expressing human M4, relative to ACh
T4 construct: expressed in transfected cells
T4 sequence (P08173 1-479): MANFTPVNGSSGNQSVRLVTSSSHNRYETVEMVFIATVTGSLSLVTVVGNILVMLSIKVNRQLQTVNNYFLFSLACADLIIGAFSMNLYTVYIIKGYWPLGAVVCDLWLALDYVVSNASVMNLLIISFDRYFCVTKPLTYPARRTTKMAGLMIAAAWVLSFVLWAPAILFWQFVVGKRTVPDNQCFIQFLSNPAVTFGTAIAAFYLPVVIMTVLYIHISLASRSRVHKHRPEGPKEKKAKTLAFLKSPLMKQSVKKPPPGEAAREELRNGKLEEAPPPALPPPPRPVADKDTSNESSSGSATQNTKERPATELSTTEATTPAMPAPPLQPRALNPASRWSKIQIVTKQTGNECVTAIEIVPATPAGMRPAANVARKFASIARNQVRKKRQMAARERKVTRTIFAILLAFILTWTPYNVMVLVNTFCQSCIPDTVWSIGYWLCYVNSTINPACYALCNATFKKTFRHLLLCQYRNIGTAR
Procedure: as §1, §2

T3 sequence (P20309 whole entry): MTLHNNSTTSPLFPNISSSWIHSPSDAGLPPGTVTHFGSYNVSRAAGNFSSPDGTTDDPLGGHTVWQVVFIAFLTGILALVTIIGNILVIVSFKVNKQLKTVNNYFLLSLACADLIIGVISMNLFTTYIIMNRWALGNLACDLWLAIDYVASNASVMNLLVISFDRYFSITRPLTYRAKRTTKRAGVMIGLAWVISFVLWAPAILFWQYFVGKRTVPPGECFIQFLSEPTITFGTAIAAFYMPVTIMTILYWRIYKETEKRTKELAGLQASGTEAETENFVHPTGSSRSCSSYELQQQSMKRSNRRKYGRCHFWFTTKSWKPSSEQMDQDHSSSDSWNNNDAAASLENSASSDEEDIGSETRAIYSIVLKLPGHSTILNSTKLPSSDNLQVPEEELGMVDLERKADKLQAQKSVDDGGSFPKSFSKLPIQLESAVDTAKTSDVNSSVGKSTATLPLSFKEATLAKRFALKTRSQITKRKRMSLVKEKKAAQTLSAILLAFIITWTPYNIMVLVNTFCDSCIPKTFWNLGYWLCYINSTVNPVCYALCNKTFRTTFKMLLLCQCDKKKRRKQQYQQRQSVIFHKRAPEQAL

`CC#CCOC(=O)N1[C@@H]2CCC[C@H]1CC(N1CCC3(CC1)CNC(=O)C3)C2` (mixture of isomers) [Example 5-3] showed an EC50 [1] of 31.6 nM, an Emax [1] of 80% and an EC50 [2] greater than 20 µM. For the same molecule, the Emax [2] was 7%, the EC50 [3] was 6.31 µM and the Emax [3] was 19%. For the same molecule, the EC50 [4] was 31.6 nM and the Emax [4] was 37%.

For `CCOC(=O)N1C2CCC1CC(N1CCC3(CC1)CNC(=O)C3)C2` (single isomer, unassigned) [Example 2-2 Isomer 2, ethyl 3-(3-oxo-2,8-diazaspiro[4.5]dec-8-yl)-8-azabicyclo[3.2.1]octane-8-carboxylate], the Emax [1] was 86%, the Emax [2] was 0% and the “% Emax cf. ACh, M3” value ([3]; listed as 2-2 Isomer 2) was 0%. The “% Emax cf. ACh, M4” value ([4]; listed as 2-2 Isomer 2) was 31%.

For `O=C1CC2(CCN(C3CC4CCC(C3)N4C(=O)OCCF)CC2)CN1` (single isomer, unassigned) [Example 2-3 Isomer 2], the EC50 [1] was 79.4 nM, the “% Emax cf. ACh, M1” value ([1]; listed as 2-3 Isomer 2) was 49% and the EC50 [2] was greater than 20 µM. The Emax [2] was 4%, the EC50 [3] was greater than 20 µM and the Emax [3] was 0%. For the same molecule, the EC50 [4] was greater than 20000 nM and the “% Emax cf. ACh, M4” value ([4]; listed as 2-3 Isomer 2) was 16%.

`C#CCOC(=O)N1C2CCC1CC(N1CCC3(CC1)CNC(=O)C3)C2` (single isomer, unassigned) [Example 2-4 Isomer 1] showed an EC50 [1] of 100 nM, an Emax [1] of 92% and an EC50 [2] greater than 20 µM. The “% Emax cf. ACh, M2” value ([2]; listed as 2-4 Isomer 1) was 27%, the EC50 [3] was greater than 20 µM and the “% Emax cf. ACh, M3” value ([3]; listed as 2-4 Isomer 1) was 7%. For the same molecule, the EC50 [4] was 126 nM and the Emax [4] was 64%.

`C#CCOC(=O)N1C2CCC1CC(N1CCC3(CC1)CNC(=O)C3)C2` (single isomer, unassigned) [Example 2-4 Isomer 2] was tested, and the EC50 [1] was 20 nM, the “% Emax cf. ACh, M1” value [1] was 86% and the “% Emax cf. ACh, M2” value ([2]; listed as 2-4 Isomer 2) was 8%. For the same molecule, the “% Emax cf. ACh, M3” value ([3]; listed as 2-4 Isomer 2) was 0%, the EC50 [4] was 25.1 nM and the “% Emax cf. ACh, M4” value [4] was 53%.

For `CC#CCOC(=O)N1C2CCC1CC(N1CCC3(CC1)CNC(=O)C3)C2` (single isomer, unassigned) [Example 2-5 Isomer 1], the EC50 [1] was 25.1 nM, the Emax [1] was 98% and the EC50 [2] was 0.158 µM. For the same molecule, the Emax [2] was 39%, the EC50 [3] was greater than 20 µM and the Emax [3] was 7%. For the same molecule, the EC50 [4] was 25.1 nM and the Emax [4] was 87%.

`CCOC(=O)N1C2CCC1CC(N1CCC3(CC1)CC(=O)NC3CC)C2` (single isomer, unassigned) [Example 2-8 Isomer 1, ethyl 3-(1-ethyl-3-oxo-2,8-diazaspiro[4.5]decan-8-yl)-8-azabicyclo[3.2.1]octane-8-carboxylate] was tested, and the EC50 [1] was 20 nM, the “% Emax cf. ACh, M1” value ([1]; listed as 2-8 Isomer 1) was 52% and the EC50 [2] was greater than 20 µM. For the same molecule, the Emax [2] was 4%, the EC50 [3] was 12.6 µM and the “% Emax cf. ACh, M3” value ([3]; listed as 2-8 Isomer 1) was 50%. The EC50 [4] was greater than 20000 nM and the “% Emax cf. ACh, M4” value ([4]; listed as 2-8 Isomer 1) was 23%.

`CCOC(=O)N1C2CCC1CC(N1CCC3(CC1)CC(=O)NC3CC)C2` (single isomer, unassigned) [Example 2-8 Isomer 2, ethyl 3-(1-ethyl-3-oxo-2,8-diazaspiro[4.5]decan-8-yl)-8-azabicyclo [3.2.1]octane-8-carboxylate] was tested, and the EC50 [1] was 100 nM, the “% Emax cf. ACh, M1” value ([1]; listed as 2-8 Isomer 2) was 89% and the “% Emax cf. ACh, M2” value [2] was 6%. For the same molecule, the EC50 [3] was greater than 20 µM, the “% Emax cf. ACh, M3” value ([3]; listed as 2-8 Isomer 2) was 12% and the EC50 [4] was 31.6 nM. The “% Emax cf. ACh, M4” value ([4]; listed as 2-8 Isomer 2) was 59%.

Work on `CCOC(=O)N1C2CCCC1CC(N1CCC3(CC1)CNC(=O)O3)C2` (single isomer, unassigned) [Example 5-4 Isomer 1] yielded an EC50 [1] of 398 nM, an Emax [1] of 76% and an EC50 [4] greater than 20000 nM. For the same molecule, the “% Emax cf. ACh, M4” value ([4]; listed as 5-4 Isomer 1) was 39%.

In the case of `COC(=O)N1CC2CC(N3CCC4(CC3)CNC(=O)C4)CC1C2` (single isomer, unassigned) [Example 6-1 Isomer 1], the EC50 [1] is reported as 2510 nM, the “% Emax cf. ACh, M1” value ([1]; listed as 6-1 Isomer 1) is reported as 78% and the EC50 [4] is reported as greater than 20000 nM. The Emax [4] was 53%.

In the case of `CCOC(=O)N1C2CCC1CC(N1CCCC3(CC1)CNC(=O)O3)C2` (single isomer, unassigned) [Example 9-2 Isomer 1, ethyl 3-(2-oxo-1-oxa-3,8-diazaspiro[4.6]undec-8-yl)-8-azabicyclo[3.2.1]octane-8-carboxylate], the EC50 [1] is reported as greater than 20000 nM, the “% Emax cf. ACh, M1” value ([1]; listed as 9-2 Isomer 1) is reported as 23% and the EC50 [4] is reported as greater than 20000 nM. For the same molecule, the “% Emax cf. ACh, M4” value ([4]; listed as 9-2 Isomer 1) was 13%.

In the case of `CCOC(=O)N1C2CCC1CC(N1CCCC3(CC1)CNC(=O)O3)C2` (single isomer, unassigned) [Example 9-2 Isomer 2, ethyl 3-(2-oxo-1-oxa-3,8-diazaspiro[4.6]undec-8-yl)-8-azabicyclo[3.2.1]octane-8-carboxylate], the EC50 [1] is reported as greater than 20000 nM, the “% Emax cf. ACh, M1” value ([1]; listed as 9-2 Isomer 2) is reported as 18% and the EC50 [4] is reported as greater than 20000 nM. For the same molecule, the “% Emax cf. ACh, M4” value ([4]; listed as 9-2 Isomer 2) was 8%.

In the case of `CCOC(=O)N1C2CCC1CC(N1CCCC3(CC1)CNC(=O)O3)C2` (single isomer, unassigned) [Example 9-2 Isomer 3, ethyl 3-(2-oxo-1-oxa-3,8-diazaspiro[4.6]undec-8-yl)-8-azabicyclo[3.2.1]octane-8-carboxylate], the EC50 [1] is reported as 501 nM, the “% Emax cf. ACh, M1” value ([1]; listed as 9-2 Isomer 3) is reported as 113% and the EC50 [4] is reported as 79.4 nM. For the same molecule, the “% Emax cf. ACh, M4” value ([4]; listed as 9-2 Isomer 3) was 81%.

With `CCOC(=O)N1C2CCC1CC(N1CCCC3(CC1)CNC(=O)O3)C2` (single isomer, unassigned) [Example 9-2 Isomer 4, ethyl 3-(2-oxo-1-oxa-3,8-diazaspiro[4.6]undec-8-yl)-8-azabicyclo[3.2.1]octane-8-carboxylate] the EC50 [1] was 10 nM, the “% Emax cf. ACh, M1” value ([1]; listed as 9-2 Isomer 4) was 103% and the EC50 [4] was 5.01 nM. The “% Emax cf. ACh, M4” value ([4]; listed as 9-2 Isomer 4) was 66%.

— patent publication US12202843B2, “Muscarinic receptor agonists” (Nxera Pharma UK Limited, priority 2014, dated 2025)
